Among the test systems are NCI-H460 lung; CCRF-CEM leukemia; RXF 393 renal; HCT-15 colon; OVCAR-5 ovarian; SR leukemia; HL-60(TB) leukemia; NCI-H226 lung; HOP-62 NSCLC; HCT-116 colon.
Holding throughout (experiment): inhibition of tumour cell growth, NCI panel, 48 h

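Method: 48-hour compound exposure of cells in 96-well plates, five concentrations, linear interpolation of endpoints. At the GI50, growth is halved. At the TGI there is no net growth.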 Bounds are passed on as bounds.

With `Oc1ccc(-c2nnc3sc(-c4ccc(F)cc4)nn23)cc1`, the GI50 in the experiment on NCI-H460 lung was over 100 µM; with CCRF-CEM leukemia, 55.7 µM; in the experiment on RXF 393 renal it was 15.6 µM; with HCT-15 colon, over 100 µM; in the experiment with OVCAR-5 ovarian, over 100 µM; in the experiment on SR leukemia, 15.1 µM. The GI50 in the experiment on HL-60(TB) leukemia is over 100 µM; in the experiment with NCI-H226 lung, 49.6 µM. Moreover, the TGI is over 100 µM in the experiment with NCI-H460 lung; over 100 µM in the experiment with CCRF-CEM leukemia; 38.2 µM in the experiment with RXF 393 renal; over 100 µM in the experiment with HCT-15 colon; over 100 µM with OVCAR-5 ovarian; over 100 µM in the experiment on SR leukemia. Besides, the TGI in the experiment on HL-60(TB) leukemia and in the experiment with NCI-H226 lung was over 100 µM throughout.
Take `COc1ccc(Nc2nc3ccc(C(F)(F)F)cc3nc2C(=O)O)cc1OC`: the TGI in the experiment with NCI-H460 lung was 54.6 µM; in the experiment on HOP-62 NSCLC, 75.4 µM; with HCT-116 colon it was 80 µM; in the experiment with RXF 393 renal, over 100 µM; in the experiment with HCT-15 colon, over 100 µM; in the experiment with OVCAR-5 ovarian it was over 100 µM. Moreover, the figures for the TGI in the experiment on SR leukemia, in the experiment with HL-60(TB) leukemia and with NCI-H226 lung were 58 µM, 64.1 µM and over 100 µM, respectively.
Regarding `O=C(NC(Cc1c[nH]c2ccccc12)C(=O)O)/C(=C/c1ccccc1O)NC(=O)c1ccccc1` (configuration not stated), the TGI in the experiment on NCI-H460 lung, with CCRF-CEM leukemia, in the experiment with HCT-116 colon, with RXF 393 renal, with HCT-15 colon and with OVCAR-5 ovarian was over 100 µM in each case. The TGI is over 100 µM in the experiment with SR leukemia, over 100 µM with HL-60(TB) leukemia and 61.5 µM in the experiment with NCI-H226 lung.
On to `O=[N+]([O-])C(=C(N1CCCCC1)N1CCCCC1)/C(Cl)=C(\Cl)Br`, for which the TGI in the experiment with NCI-H460 lung was over 100 µM; in the experiment on CCRF-CEM leukemia, 42.4 µM; in the experiment on HOP-62 NSCLC it was over 100 µM; in the experiment with HCT-116 colon, 41.7 µM; in the experiment with RXF 393 renal it was 62.9 µM; in the experiment with HCT-15 colon, 54.1 µM. For the same molecule, the TGI in the experiment with SR leukemia was found to be 30.9 µM; in the experiment on HL-60(TB) leukemia, 37.9 µM; with NCI-H226 lung, 44.6 µM.
For `Cc1cn2c(/C=C3/C(=O)Nc4cccc(Cl)c43)c(Cl)nc2s1`, the TGI in the experiment on CCRF-CEM leukemia is 28 µM; in the experiment with HOP-62 NSCLC it was 39.1 µM; in the experiment on HCT-116 colon it was over 100 µM; in the experiment on RXF 393 renal, 87 µM; in the experiment on HCT-15 colon, over 100 µM; with OVCAR-5 ovarian it was over 100 µM. Moreover, the TGI in the experiment with SR leukemia and in the experiment on HL-60(TB) leukemia was over 100 µM each time.
Turning to `Cc1cc(-c2nc3c(O)cccc3s2)ccc1N`, the TGI in the experiment on NCI-H460 lung was over 100 µM; with CCRF-CEM leukemia, 82.9 µM; in the experiment on HOP-62 NSCLC, 88.8 µM; in the experiment on HCT-116 colon, 49 µM; in the experiment on RXF 393 renal, over 100 µM; with HCT-15 colon, 79 µM. In addition, the TGI with SR leukemia is 93.8 µM; with HL-60(TB) leukemia, 44.5 µM; with NCI-H226 lung it was over 100 µM.
For the molecule `CCC[C@H]1C(=O)N=C(N)N1C(=O)OCc1ccccc1`, the TGI with NCI-H460 lung, with HOP-62 NSCLC, with HCT-116 colon, with RXF 393 renal, with HCT-15 colon and with OVCAR-5 ovarian was over 100 µM in each case. Besides, the TGI with SR leukemia, in the experiment on HL-60(TB) leukemia and in the experiment on NCI-H226 lung was over 100 µM in each case.
Turning to `C=C(Cl)/C(=C\Cl)CCC(Br)C(C)C` (configuration not stated), the TGI in the experiment on NCI-H460 lung, in the experiment on CCRF-CEM leukemia, in the experiment with HOP-62 NSCLC, with HCT-116 colon, in the experiment with RXF 393 renal and with OVCAR-5 ovarian was over 100 µM throughout. Also, the TGI in the experiment on SR leukemia, with HL-60(TB) leukemia and in the experiment on NCI-H226 lung was over 100 µM throughout.
As for `O=C(CN1CCCCC1)CC(O)(C(F)(F)F)C(F)(F)F`, the TGI with NCI-H460 lung, in the experiment with CCRF-CEM leukemia, in the experiment with HCT-116 colon, with RXF 393 renal, in the experiment with HCT-15 colon and with OVCAR-5 ovarian was over 100 µM throughout. The TGI in the experiment with SR leukemia, in the experiment with HL-60(TB) leukemia and with NCI-H226 lung was over 100 µM throughout.
For the molecule `CCOC1CC(=O)c2c(Br)sc(Br)c21` (configuration not stated), the TGI in the experiment with NCI-H460 lung was determined as 43.1 µM; with CCRF-CEM leukemia, 50.8 µM; in the experiment on HOP-62 NSCLC it was 38.2 µM; in the experiment with HCT-116 colon, 38.4 µM; in the experiment on RXF 393 renal, 35.5 µM; with HCT-15 colon, 41.9 µM. In addition, the values for the TGI in the experiment with OVCAR-5 ovarian, in the experiment with SR leukemia and in the experiment with HL-60(TB) leukemia were 45.3 µM, 60.3 µM and 48.6 µM, respectively.
In the case of `O=C(Nc1cccc2cnccc12)c1cc2c(cc1Cl)Sc1nccn1S2(=O)=O`, the TGI in the experiment with NCI-H460 lung is 24.1 µM; with HOP-62 NSCLC, 39.7 µM; in the experiment with HCT-116 colon, 20 µM; in the experiment with RXF 393 renal it was 24.4 µM; in the experiment on HCT-15 colon, 27.8 µM; with OVCAR-5 ovarian, 77.8 µM. Also, the figures for the TGI in the experiment with SR leukemia, with HL-60(TB) leukemia and in the experiment with NCI-H226 lung were 48.9 µM, 21.8 µM and 38.5 µM, respectively.
As for `COc1ccc(/C(=N/O)c2ccccc2-c2nc3ccccc3c(=O)n2-c2ccc(S(=O)(=O)Nc3ncccn3)cc2)cc1C`, the TGI was over 31.6 µM with NCI-H460 lung; 25.5 µM in the experiment with CCRF-CEM leukemia; over 31.6 µM in the experiment on HOP-62 NSCLC; 22.1 µM in the experiment on HCT-116 colon; 19.8 µM in the experiment with RXF 393 renal; 28.6 µM in the experiment with HCT-15 colon. Also, the values for the TGI in the experiment on OVCAR-5 ovarian, with SR leukemia and with HL-60(TB) leukemia were over 31.6 µM, 31 µM and 20 µM, respectively.
Take `CCN(CC)CCNc1ccc2nnn3c4ccc(OC)cc4c(=O)c1c23`: the TGI in the experiment with NCI-H460 lung came to 13.3 µM; in the experiment with CCRF-CEM leukemia, 32.7 µM; in the experiment on HOP-62 NSCLC it was 23.8 µM; in the experiment on HCT-116 colon, 14.5 µM; in the experiment on HCT-15 colon, 18.7 µM; in the experiment with OVCAR-5 ovarian, 23.7 µM. The TGI in the experiment on SR leukemia was found to be 7.21 µM; with HL-60(TB) leukemia, 22.3 µM; in the experiment on NCI-H226 lung it was 20 µM.
As for `Nc1c2ccccc2nc2c1ccc1ncccc12`, the TGI with NCI-H460 lung was 47.4 µM; with CCRF-CEM leukemia it was 39 µM; with HCT-116 colon, over 100 µM; in the experiment on RXF 393 renal it was 98.4 µM; in the experiment on HCT-15 colon, over 100 µM; in the experiment with OVCAR-5 ovarian it was over 100 µM. The TGI was over 100 µM in the experiment on SR leukemia, 20.4 µM in the experiment on HL-60(TB) leukemia and 43.9 µM in the experiment on NCI-H226 lung.

The record behind these values is PubChem BioAssay (NCI).
